Data set [1] deals with HCV 1b replicon cells (Huh-7.5.1). As to the kind of experiment: Anti-HCV assay, HCV 1b replicon cells with luciferase reporter. Format: cell-based, hepatitis C virus (HCV) subtype 1b. The conditions noted are these: for inhibition at 10 µM / inhibition at 25 µM: Huh-7.5.1, 72 h; for inhibition at 10 µM: read-out: HCV Inhibition 10 μM; for inhibition at 25 µM: read-out: HCV Inhibition 25 μM; for EC50: mean ± SD; for HCV inhibition at the tested concentrations: at the tested concentrations (25 μM and 10 μM). The procedure: (§1) The HCV replicons were validated as convenient and effective models for testing the anti-HCV activity. Since HCV subtype 1b is one of the major subtypes worldwide, especially in China, the replicon model from the Huh-7.5.1 cell line integrating HCV 1b genome encoding the nonstructural proteins was chosen to evaluate the anti-HCV activities of 3-hydroxyquinazoline-2,4(1H,3H)-diones. The inhibitory rates of the compounds on HCV replicon cells were determined at concentrations of 25 μM and 10 μM, respectively. The broad-spectrum antiviral drug ribavirin (RBV) and the NS5B nucleoside inhibitor 2′-C-methyladenosine (2CMA) were selected as positive controls. The cytotoxicity of these compounds on replicon cells was determined using the cell counting kit-8 (CCK-8) assay.
HCV 1b replicon cells (Huh-7.5.1) containing luciferase reporter gene were kindly provided by Prof. Zhenghong Yuan (Key Laboratory of Medical Molecular Virology, Fudan University, Shanghai, China). The replicon cells were plated at 1.5 × 10^4 cells per well in a 48-well plate (Corning Inc., New York, NY, USA) at 5% CO2/37 °C. The culture medium was Dulbecco’s Modified Eagle Medium (DMEM, pH 7.3, Shanghai XP Biomed Ltd., Shanghai, China) containing 10% fetal bovine serum (Shanghai XP Biomed Ltd., Shanghai, China), 10^5 U/L penicillin, 0.1 g/L streptomycin, and 0.5 μg/mL blasticidin. After 12 h, the culture medium in each well was replaced with 300 μL of pre-prepared fresh culture medium containing test compound (dissolved in DMSO with specific concentration) or blank DMSO. The final concentration of DMSO in the culture medium in the plate was 0.1%. Each group was tested at least twice in parallel. Ribavirin and 2CMA were used as the positive controls. After incubating the drug-added plate at 5% CO2/37 °C for 72 h, the medium was removed, and each well was washed with 300 μL of phosphate buffer solution (PBS, Shanghai XP Biomed Ltd., Shanghai, China). The cells in each well were then lysed with 50 μL of 1× lysis buffer (E2820, Promega, Madison, WI, USA). Subsequently, 50 μL of 1× luciferase assay substrate (E2820, Promega, Madison, WI, USA) was mixed with 20 μL of the harvested cell lysates.
The inhibitory rates under at least six different concentration gradients were imported into GraphPad Prism 7.0 software to calculate the anti-HCV EC50 values of the compounds using the nonlinear fitting method.

Data set [2] can be described thus: Cytotoxicity assay (CCK-8) on replicon cells. In kind it is cell-based. The settings on record: human, HCV 1b replicon cells (Huh-7.5.1); 50% cytotoxic concentration; CCK-8, HCV 1b replicon cells, 72 h. As to the method:
as §1
The HCV 1b replicon cells were incubated and treated with test compounds or blank DMSO in a 48-well plate using the same materials and methods as described in the experimental procedure of anti-HCV assay. The final concentration of DMSO in each well was 0.1%. After 72 h of drug treatment, the culture medium in the well plate was removed, and cells in each well were washed with 300 μL of PBS. A total of 300 μL of pre-prepared fresh culture medium containing 30 μL CCK-8 reagent (Donjindo, Kumamoto, Japan) was added to each well, and the plate was incubated at 5% CO2/37 °C for 2 h. The OD (optical density) value of each well at 450 nm was measured using a multi-function microplate reader (SpectraMax M5, Molecular Devices, San Jose, CA, USA). The death ratio of each well was calculated using the following equation, in which ODcompound or ODblank represents the measured OD value of the compound group or the blank control (DMSO), respectively:death ratio = (1−ODcompound/ODblank) × 100%(2)
The cell death data under at least six different concentration gradients were imported into GraphPad Prism 7.0.0 software (GraphPad Software Inc., San Diego, CA, USA), and the CC50 (50% cytotoxic concentration) values were calculated using the nonlinear fitting method.

[3] abbreviates: Hepatitis C virus, inhibitory rate at 10 μM, HCV 1b replicon cells, 72 h.
Setting [4] is: Hepatitis C virus, inhibitory rate at 25 μM, HCV 1b replicon cells, 72 h.
Setting [5] is: Hepatitis C virus, Huh-7.5.1, 50% effective concentration, HCV 1b replicon cells.
[6] abbreviates: 50% effective concentration, HCV 1b replicon cells.

Read-outs that look alike come from different tables or passages of the source.

A word on the inhibition: it is the change of the read-out against control, counted positive when it falls. On to `O=c1[nH]c2ccccc2c(=O)n1O` [10a, 3-Hydroxyquinazoline-2,4(1H,3H)-dione], for which, in data set [1] (Hepatitis C virus), the inhibition at 10 µM is -3% and the inhibition at 25 µM turned out to be 36%.

Turning to `O=c1c2ccccc2n(CCCc2ccccc2)c(=O)n1O` [10b, 3-Hydroxy-1-(3-phenylpropyl)quinazoline-2,4(1H,3H)-dione], in data set [1] (setting [3]), the inhibition at 10 µM came out at 28.6%. The inhibition at 25 µM in data set [1] (setting [4]) was 40.9%.

By CC50 is commonly meant the concentration giving 50% cytotoxicity. A low value points to greater toxicity to the cells. The term EC50 denotes the concentration at which the effect is half-maximal. A low value points to a more potent agent. On to `O=C(Cn1c(=O)n(O)c(=O)c2ccccc21)c1ccccc1` [10e, 3-Hydroxy-1-(2-oxo-2-phenylethyl)quinazoline-2,4(1H,3H)-dione], for which, in data set [2], the CC50 at 72 h was found to be 13.1 ± 1.7 µM. For the same compound, the response in data set [1] (setting [5]) was half-maximal at 11.3 ± 3 µM (EC50). Also, in data set [1] (setting [3]), the inhibition at 10 µM was 46.1%. For the same compound, the inhibition at 25 µM in data set [1] (setting [4]) was 68%.

Regarding `O=C(Cn1c(=O)n(O)c(=O)c2ccccc21)NCCc1ccccc1` [10f, 2-(3-Hydroxy-2,4-dioxo-3,4-dihydroquinazolin-1(2H)-yl)-N-phenethylacetamide], in data set [1] (setting [3]), the inhibition at 10 µM is 13.3%. Also, the inhibition at 25 µM in data set [1] (setting [4]) was not above 50%.

`O=C(Cn1c(=O)n(O)c(=O)c2ccccc21)NCC1CC1` [10g, N-(Cyclopropylmethyl)-2-(3-hydroxy-2,4-dioxo-3,4-dihydroquinazolin-1(2H)-yl)acetamide]: the inhibition at 10 µM in data set [1] (setting [3]) came out at 10.6%. For the same compound, the inhibition at 25 µM in data set [1] (setting [4]) was determined as 15%. The “HCV inhibition at the tested concentrations” value in data set [1] is reported as “less than 30%”.

On to `O=C(Cn1c(=O)n(O)c(=O)c2ccccc21)NCc1ccccc1` [10h, N-Benzyl-2-(3-hydroxy-2,4-dioxo-3,4-dihydroquinazolin-1(2H)-yl)acetamide], for which the inhibition at 10 µM in data set [1] (setting [3]) is 1.3%. Besides, in data set [1] (setting [4]), the inhibition at 25 µM was not above 50%.

In the case of `CCCCNC(=O)Cn1c(=O)n(O)c(=O)c2ccccc21` [10i, N-Butyl-2-(3-hydroxy-2,4-dioxo-3,4-dihydroquinazolin-1(2H)-yl)acetamide], in data set [1] (setting [3]), the inhibition at 10 µM was 26.5%. Besides, the inhibition at 25 µM in data set [1] (setting [4]) was 22.9%. Also, in data set [1], the “HCV inhibition at the tested concentrations” value was “less than 30%”.

In the case of `O=C(Cn1c(=O)n(O)c(=O)c2ccccc21)Nc1ccccc1` [10j, 2-(3-Hydroxy-2,4-dioxo-3,4-dihydroquinazolin-1(2H)-yl)-N-phenylacetamide], the inhibition at 10 µM in data set [1] (setting [3]) was 30.1%. For the same compound, in data set [1] (setting [4]), the inhibition at 25 µM is 62.7%.

Take `O=C(Cn1c(=O)n(O)c(=O)c2ccccc21)NCc1c(Cl)cccc1Cl` [10k, N-(2,6-Dichlorobenzyl)-2-(3-hydroxy-2,4-dioxo-3,4-dihydroquinazolin-1(2H)-yl)acetamide]: in data set [1] (setting [3]), the inhibition at 10 µM came out at 43.7%. Moreover, in data set [1] (setting [4]), the inhibition at 25 µM was determined as 54.7%.

With `O=C(Cn1c(=O)n(O)c(=O)c2ccccc21)NCc1cccc(F)c1` [10l, N-(3-Fluorobenzyl)-2-(3-hydroxy-2,4-dioxo-3,4-dihydroquinazolin-1(2H)-yl)acetamide], the inhibition at 10 µM in data set [1] (setting [3]) worked out at 22.4%. The inhibition at 25 µM in data set [1] (setting [4]) is 45.5%.

In the case of `O=C(Cn1c(=O)n(O)c(=O)c2ccccc21)NCc1ccc(F)cc1` [10m, N-(4-Fluorobenzyl)-2-(3-hydroxy-2,4-dioxo-3,4-dihydroquinazolin-1(2H)-yl)acetamide], in data set [1] (setting [3]), the inhibition at 10 µM was determined as 12.7%. In addition, in data set [1] (setting [4]), the inhibition at 25 µM worked out at 58.4%.

`N#Cc1ccc(NC(=O)Cn2c(=O)n(O)c(=O)c3ccccc32)cc1` [10n, N-(4-Cyanophenyl)-2-(3-hydroxy-2,4-dioxo-3,4-dihydroquinazolin-1(2H)-yl)acetamide] came in with a CC50 at 72 h in data set [2] of 10.6 ± 0.3 µM. Besides, the results for the EC50 in data set [1] (setting [6]) and in data set [1] (setting [5]) were 6.4 ± 0.3 µM and less than 10 µM, respectively. In addition, the inhibition at 10 µM in data set [1] (setting [3]) was determined as 58%. Further, the inhibition at 25 µM in data set [1] (setting [4]) stood at 66%.

As to `COc1ccc(NC(=O)Cn2c(=O)n(O)c(=O)c3ccccc32)cc1` [10o, 2-(3-Hydroxy-2,4-dioxo-3,4-dihydroquinazolin-1(2H)-yl)-N-(4-methoxyphenyl)acetamide], in data set [1] (setting [3]), the inhibition at 10 µM stood at 16.9%. In addition, the inhibition at 25 µM in data set [1] (setting [4]) came out at 67.5%.

In the case of `O=C(Cn1c(=O)n(O)c(=O)c2ccccc21)Nc1ccc(C(F)(F)F)cc1` [10p, 2-(3-Hydroxy-2,4-dioxo-3,4-dihydroquinazolin-1(2H)-yl)-N-(4-(trifluoromethyl)phenyl)acetamide], the CC50 at 72 h in data set [2] came out at 15.3 ± 0.7 µM. For the same compound, the EC50 in data set [1] (setting [6]) is 8.1 ± 0.1 µM; in data set [1] (setting [5]), less than 10 µM. In addition, in data set [1] (setting [3]), the inhibition at 10 µM was determined as 41.4%. The inhibition at 25 µM in data set [1] (setting [4]) amounted to 64.9%.

Regarding `O=c1[nH]c2cc(Cc3ccccc3)ccc2c(=O)n1O` [18a, 7-Benzyl-3-hydroxyquinazoline-2,4(1H,3H)-dione], the inhibition at 10 µM in data set [1] (setting [3]) worked out at 28.6%. Moreover, the inhibition at 25 µM in data set [1] (setting [4]) turned out to be 59.8%.

Turning to `Cn1c(=O)n(O)c(=O)c2ccc(Cc3ccccc3)cc21` [18b, 7-Benzyl-3-hydroxy-1-methylquinazoline-2,4(1H,3H)-dione], in data set [1] (setting [3]), the inhibition at 10 µM was 23%.

On to `Cn1c(=O)n(O)c(=O)c2ccc(Cc3cc(F)cc(F)c3)cc21` [18c, 7-(3,5-Difluorobenzyl)-3-hydroxy-1-methylquinazoline-2,4(1H,3H)-dione], for which the inhibition at 10 µM in data set [1] (setting [3]) came out at 39.5%.

With `O=c1[nH]c2cc(-c3cc(F)cc(F)c3)ccc2c(=O)n1O` [21m, 7-(3,5-Difluorophenyl)-3-hydroxyquinazoline-2,4(1H,3H)-dione], the inhibition at 10 µM in data set [1] (setting [3]) worked out at 48.2%.

Take `O=c1[nH]c2cc(-c3cc(F)c(F)c(F)c3)ccc2c(=O)n1O` [21q, 3-Hydroxy-7-(3,4,5-trifluorophenyl)quinazoline-2,4(1H,3H)-dione]: the inhibition at 10 µM in data set [1] (setting [3]) turned out to be 26.8%. Further, the inhibition at 25 µM in data set [1] (setting [4]) was 5.4%.

Regarding `O=c1[nH]c2c(-c3ccc(F)cc3)cccc2c(=O)n1O` [21v, 8-(4-Fluorophenyl)-3-hydroxyquinazoline-2,4(1H,3H)-dione], in data set [1] (setting [3]), the inhibition at 10 µM was 23.5%. For the same compound, the inhibition at 25 µM in data set [1] (setting [4]) worked out at 44.5%.

Take `COc1ccc(-c2cccc3c(=O)n(O)c(=O)[nH]c23)cc1` [21w, 3-Hydroxy-8-(4-methoxyphenyl)quinazoline-2,4(1H,3H)-dione]: the inhibition at 10 µM in data set [1] (setting [3]) was found to be 11.5%. In addition, the inhibition at 25 µM in data set [1] (setting [4]) came to 36.4%.

Regarding `O=c1[nH]c2c(-c3ccc(C(F)(F)F)cc3)cccc2c(=O)n1O` [21x, 3-Hydroxy-8-(4-(trifluoromethyl)phenyl)quinazoline-2,4(1H,3H)-dione], the inhibition at 10 µM in data set [1] (setting [3]) was determined as 16.4%. Further, the inhibition at 25 µM in data set [1] (setting [4]) was found to be 47.5%.

For the compound `CCCn1c(=O)n(O)c(=O)c2cc(-c3ccccc3)ccc21` [23f, 3-Hydroxy-6-phenyl-1-propylquinazoline-2,4(1H,3H)-dione], the inhibition at 10 µM in data set [1] (setting [3]) was determined as 26.7%. Besides, the inhibition at 25 µM in data set [1] (setting [4]) worked out at 28%.

For `CCCn1c(=O)n(O)c(=O)c2ccc(-c3ccccc3)cc21` [23g, 3-Hydroxy-7-phenyl-1-propylquinazoline-2,4(1H,3H)-dione], the inhibition at 10 µM in data set [1] (setting [3]) was -2.2%. Also, the inhibition at 25 µM in data set [1] (setting [4]) amounted to 67.4%.

For the compound `O=c1c2cc(-c3ccccc3)ccc2n(Cc2ccccc2)c(=O)n1O` [23h, 1-Benzyl-3-hydroxy-6-phenylquinazoline-2,4(1H,3H)-dione], the inhibition at 10 µM in data set [1] (setting [3]) amounted to 7.8%. Moreover, the inhibition at 25 µM in data set [1] (setting [4]) turned out to be 2%.

`O=c1c2ccc(-c3ccccc3)cc2n(Cc2ccccc2)c(=O)n1O` [23i, 1-Benzyl-3-hydroxy-7-phenylquinazoline-2,4(1H,3H)-dione]: the inhibition at 10 µM in data set [1] (setting [3]) is -6.5%. The inhibition at 25 µM in data set [1] (setting [4]) was 4.8%.

(Values after PMC9180926, “Discovery of Novel 3-Hydroxyquinazoline-2,4(1H,3H)-Dione Derivatives: A Series of Metal Ion Chelators with Potent Anti-HCV Activities” (International Journal of Molecular Sciences, 2022).)
